US5607969A, “L-DOPA ethyl ester to treat Parkinson's disease” (priority 1995, dated 1997)
“Also recorded” adds a separate entry of the source. Structures can show the parent of a compound that is named as a salt. Where two headings read alike, the source gives them in different places. Values belong to the compound of their own block, whether it stands above or below them.

Legend:
[1] = Stability of L-DOPA ethyl ester prepared according to Examples 1 and 2 (Table 2); type: physicochemical; parameters: key to COLOR: A: White with gray particles; B: Cream; C: WhiteYellow; D: Yellow; E: Dark Yellow; F: Gray; IMPURITIES: unit not given beside the values
Description: | STABILITY OF L-DOPA ESTER PREPARED

[2] = tested on: Parkinson's Disease patients having response fluctuations; assay: Clinical trial: administration of L-DOPA ethyl ester by injection (UPDRS on/off phases); type: in vivo, human
Description: A clinical trial was undertaken to assess the clinical efficacy of L-DOPA ethyl ester administered by sub-cutaneous injection.
The solution for injection L-DOPA ethyl ester 100mg, HCl to pH 4.0 and purified water as the vehicle.
Ten Parkinson's Disease patients having response fluctuations were hospitalized. These patients are typified in have "on" phases fluctuating with incapacitating "off" phases. Patients were administered s.c. or i.m. L-DOPA ethyl ester at escalating doses of 150-300mg in 2ml vehicle, twice daily, one hour after an oral capsule containing 25mg of carbidopa. "Off" and "on" UPDRS (Unified Parkinson's Disease Rating Scale) profiles, time to "on" phase and duration of "on" phase were measured. Blood samples were taken every 10 minutes post-L-DOPA ethyl ester administration for measurement of levodopa levels.

[3] = cited from earlier work
[4] = tested on: Parkinsonian patients; settings: cited from earlier work
[5] = Bio-availability of L-DOPA ethyl ester in rats (subcutaneous), plasma L-DOPA profile; type: in vivo; settings: s.c.
Description: Three subgroups of rats, each comprising four males and four females, were injected subcutaneously with 100 mg./kg. L-DOPA equivalents as L-DOPA ethyl ester. The L-DOPA ethyl ester was prepared as described in Example 1 and formulated as described in Example 4. After injection, blood samples were taken from the tail at the times shown below and analyzed for L-DOPA as described in T. Wikberg, J. of Pharmaceutical & Biomedical Analysis 9: 167-176 (1991). […] The L-DOPA plasma profile following injection is shown below: […]

[6] = Oral administration of L-DOPA ethyl ester to volunteers, plasma L-DOPA levels; type: in vivo, human; settings: humans
Description: Human volunteers orally received 100 mg equivalents of L-DOPA as L-DOPA ethyl ester prepared according to Example 1 and formulated as described in Example 5. Plasma levels of L-DOPA following administration of representative patients are listed below in Table 5.

[7] = tested on: fluctuating Parkinsonian patients; assay: First oral clinical trial in fluctuating Parkinsonian patients; type: in vivo, human; settings: four occasions over two days, five patients
Description: This was the second in a series of oral clinical trials carried out with L-DOPA ethyl ester. The first clinical trial was carried out in five fluctuating Parkinsonian patients in the hospital setting where L-DOPA ethyl ester was administered on four occasions over a two day period.

[8] = tested on: fluctuating Parkinsonian patients; assay: Second oral clinical trial: safety, tolerability and preliminary efficacy of L-DOPA ethyl ester, sub-chronic; type: in vivo, human
Description: A clinical trial was carried out to determine the safety, tolerability, and preliminary efficacy of L-DOPA ethyl ester administered sub-chronically via the oral route in eight fluctuating Parkinsonian patients.
In the second clinical trial, all patients filled out daily diary cards for at least 10 days prior to study entry to ensure their reliability. Upon study entry they were instructed to continue filling out daily diary cards for the 10-day period during which they were taking L-DOPA ethyl ester.
Three out of the patients' normal daily doses with levodopa/carbidopa or levodopa/benserazide were switched to L-DOPA ethyl ester, each day for ten days. At the beginning and end of this ten-day period, a physical exam was performed and blood chemistry analyzed.

[9] = Hygroscopicity, stability and crystallization of L-DOPA ethyl ester hydrochloride / free base made by conventional methods; type: physicochemical
Description: GB Patent No. 1,364,505 and corresponding U.S. Pat. No. 3,803,120, assigned to Hoffman-La Roche, describe the synthesis of L-DOPA ethyl ester hydrochloride salt and free base. This compound synthesized is used as an intermediate in the synthesis of other compounds and is not characterized in the patent specification. […] This material cannot be used for pharmaceutical compositions.

[10] = literature, hydrochloride, cited from earlier work
[11] = 25° C. -N2, 1 m, listed as Example 1
[12] = 25° C. -N2, 2 m, listed as Example 1
[13] = 25° C. -N2, 4 m, listed as Example 1
[14] = 40° C., 1 m, listed as Example 1
[15] = 40° C., 2 m, listed as Example 1
[16] = 40° C., 4 m, listed as Example 1
[17] = s.c./i.m. injection, dose dependence
[18] = synthesized by the methods of GB 1,364,505 / U.S. 3,803,120

SMILES: N[C@@H](Cc1ccc(O)c(O)c1)C(=O)O [L-DOPA]
mean duration of "on" phase ([2]; levodopa, prior to administration of LDEE): approximately 90 minutes
mean latency to an "on" phase ([2]; post-administration of levodopa, prior to administration of LDEE): 45 to 75 min
solubility [3]: very poor solubility
initial period of satisfactory, smooth and stable clinical benefit ([4]; L-DOPA therapy, on the average): 2-5 years
bioavailability ([4]; in vivo): poor bioavailability
half-life in vivo ([4]; in vivo): short half-life in vivo

SMILES: CCOC(=O)[C@@H](N)Cc1ccc(O)c(O)c1 [L-DOPA ethyl ester]
COLOR [1, 11]: A
IMPURITIES [1, 11]: 1.2
COLOR [1, 12]: B
IMPURITIES [1, 12]: 0.7
COLOR [1, 13]: C
IMPURITIES [1, 13]: 0.6
COLOR [1, 14]: A
IMPURITIES [1, 14]: 2.4
COLOR [1, 15]: B
IMPURITIES [1, 15]: 0.7
ASSAY ([1]; 40° C., 4 m, 172800 min, listed as Example 1, 172800 min): 99.7%
COLOR [1, 16]: C
IMPURITIES [1, 16]: 0.5
remaining at 720 h ([1]; storage, 25° C. -N2, 1 m): 98%
remaining at 1440 h ([1]; storage, 25° C. -N2, 2 m): 99.4%
remaining at 2880 h ([1]; storage, 25° C. -N2, 4 m): 99.5%
remaining at 720 h ([1]; storage, 40° C., 1 m): 98.9%
remaining at 1440 h ([1]; storage, 40° C., 2 m): 99.6%
conversion to L-DOPA [5]: fully converted to L-DOPA
L-DOPA ethyl ester detected in plasma samples ([5]; 100 mg./kg. L-DOPA equivalents): No L-DOPA ethyl ester was detected in any of the plasma samples
kinetic profile ([5]; compared with L-DOPA): kinetic profile similar to L-DOPA
conversion of L-DOPA ethyl ester to L-DOPA [6]: rapid conversion of L-DOPA ethyl ester to L-DOPA in humans
adverse reactions [7]: No adverse reactions were recorded in any of the patients
serum chemistry ([8]; following ten-day treatment): no abnormalities or changes for any patient
duration of the anti-Parkinsonian effect ([8]; ten days): marked beneficial effect
latency to initiation of drug action ([8]; ten days): marked beneficial effect
variability of the response of the patient to the drug's effect ([8]; ten days): significant decrease
safety and tolerability ([8]; ten days, three times per day): well tolerated by all individuals in the trial; also recorded: safe, well tolerated
unpredictability of drug response ([8]; ten days, three times per day, potential advantage): reducing the unpredictability of drug response
patient complaints / adverse reaction ([8]; ten-day treatment, eight patients): no patient complaints nor any reported adverse reaction
MEAN TIME TO "ON" (RANGE) ([2]; 150 mg i.m., 2 injections, range (30-45)): 37.5 min
MEAN DURATION OF "ON" (RANGE) ([2]; 150 mg i.m., 2 injections, range (60-70)): 65 min
MEAN DURATION OF "ON" (RANGE) ([2]; 150 mg s.c., 6 injections, range (10-55)): 31.4 min
MEAN TIME TO "ON" (RANGE) ([2]; 150 mg s.c., 6 injections, range (25-90)): 54 min
MEAN TIME TO "ON" (RANGE) ([2]; 200 mg i.m., 5 injections, range (20-40)): 29.2 min
MEAN DURATION OF "ON" (RANGE) ([2]; 200 mg i.m., 5 injections, range (28-175)): 104.5 min
MEAN TIME TO "ON" (RANGE) ([2]; 200 mg s.c., 19 injections, range (10-120)): 38.6 min
MEAN DURATION OF "ON" (RANGE) ([2]; 200 mg s.c., 19 injections, range (10-235)): 126.9 min
MEAN TIME TO "ON" (RANGE) ([2]; 250 mg i.m., 5 injections, range (10-35)): 27.5 min
MEAN DURATION OF "ON" (RANGE) ([2]; 250 mg i.m., 5 injections, range (75-170)): 133.3 min
MEAN TIME TO "ON" (RANGE) ([2]; 250 mg s.c., 8 injections, range (20-40)): 27.1 min
MEAN DURATION OF "ON" (RANGE) ([2]; 250 mg s.c., 8 injections, range (60-210)): 155 min
MEAN TIME TO "ON" (RANGE) ([2]; 300 mg i.m., 7 injections, range (5-35)): 18.3 min
MEAN DURATION OF "ON" (RANGE) ([2]; 300 mg i.m., 7 injections, range (135-265)): 196.7 min
MEAN TIME TO "ON" (RANGE) ([2]; 300 mg s.c., 6 injections, range (5-37)): 22.8 min
MEAN DURATION OF "ON" (RANGE) ([2]; 300 mg s.c., 6 injections, range (80-315)): 193 min
patients turned to an "on" phase ([2]; s.c. LDEE injection): All patients were turned to an "on" phase
local or general side effects ([2]; s.c./i.m. injection): No local or general side effects were observed
plasma levodopa elevations ([2]; s.c./i.m. injection): rapid and sustained plasma levodopa elevations
duration of "on" phases [2, 17]: increased in a dose-dependant manner
latency of onset of "on" phases [2, 17]: decreased

SMILES: CCOC(=O)[C@@H](N)Cc1ccc(O)c(O)c1 [L-DOPA ethyl ester hydrochloride salt, L-DOPA ethyl ester hydrochloride]
hygroscopicity ([9]; applicant's own finding, hydrochloride): hygroscopic nature
crystallization [9, 18]: difficult to crystallize
stability [9, 18]: not stable
crystallization [10]: difficult to crystallize
hygroscopicity [10]: hygroscopic
crystallization ([10]; listed as ethyl ester): could not be crystallized as its hydrochloride salt
hygroscopicity ([10]; listed as ethyl ester): hygroscopic potential

Results, then the compound that gave them:

COLOR ([1]; 25° C. -N2, 1 m): D
IMPURITIES ([1]; 25° C. -N2, 1 m): 16.9
ASSAY ([1]; 25° C. -N2, 1 m, 43200 min): 83.1%
COLOR ([1]; 25° C. -N2, 2 m): E
IMPURITIES ([1]; 25° C. -N2, 2 m): 17.2
ASSAY ([1]; 25° C. -N2, 2 m, 86400 min): 84.4%
COLOR ([1]; 40° C., 1 m): E
IMPURITIES ([1]; 40° C., 1 m): 20.9
ASSAY ([1]; 40° C., 1 m, 43200 min): 82.6%
COLOR ([1]; 40° C., 2 m): E
IMPURITIES ([1]; 40° C., 2 m): 19.3
ASSAY ([1]; 40° C., 2 m, 86400 min): 80.0%
ASSAY ([1]; t = 0): 87%
SMILES: CCOC(=O)[C@@H](N)Cc1ccc(O)c(O)c1 [Example 2a, L-DOPA ethyl ester]

COLOR ([1]; 25° C. -N2, 1 m): D/E
IMPURITIES ([1]; 25° C. -N2, 1 m): 13.0
ASSAY ([1]; 25° C. -N2, 1 m, 43200 min): 88.0%
COLOR ([1]; 25° C. -N2, 2 m): D/E
IMPURITIES ([1]; 25° C. -N2, 2 m): 13.9
ASSAY ([1]; 25° C. -N2, 2 m, 86400 min): 86.8%
COLOR ([1]; 25° C. -N2, 4 m): D/E
IMPURITIES ([1]; 25° C. -N2, 4 m): 9.7
ASSAY ([1]; 25° C. -N2, 4 m, 172800 min): 88.1%
COLOR ([1]; 40° C., 1 m): D/E
IMPURITIES ([1]; 40° C., 1 m): 14.0
ASSAY ([1]; 40° C., 1 m, 43200 min): 85.1%
COLOR ([1]; 40° C., 2 m): D/E
IMPURITIES ([1]; 40° C., 2 m): 18.2
ASSAY ([1]; 40° C., 2 m, 86400 min): 83.3%
COLOR ([1]; 40° C., 4 m): F
ASSAY ([1]; 40° C., 4 m, 172800 min): 79.2%
ASSAY ([1]; t = 0): 87.9%
SMILES: CCOC(=O)[C@@H](N)Cc1ccc(O)c(O)c1 [Example 2b, L-DOPA ethyl ester]

COLOR ([1]; 25° C. -N2, 1 m): D
IMPURITIES ([1]; 25° C. -N2, 1 m): 5.6
ASSAY ([1]; 25° C. -N2, 1 m, 43200 min): 94.0%
COLOR ([1]; 25° C. -N2, 2 m): D/E
IMPURITIES ([1]; 25° C. -N2, 2 m): 5.1
ASSAY ([1]; 25° C. -N2, 2 m, 86400 min): 93.6%
COLOR ([1]; 25° C. -N2, 4 m): F
IMPURITIES ([1]; 25° C. -N2, 4 m): 5.6
ASSAY ([1]; 25° C. -N2, 4 m, 172800 min): 94.1%
COLOR ([1]; 40° C., 1 m): D
IMPURITIES ([1]; 40° C., 1 m): 5.7
ASSAY ([1]; 40° C., 1 m, 43200 min): 91.7%
COLOR ([1]; 40° C., 2 m): D/E
IMPURITIES ([1]; 40° C., 2 m): 4.8
ASSAY ([1]; 40° C., 2 m, 86400 min): 93%
COLOR ([1]; 40° C., 4 m): F
IMPURITIES ([1]; 40° C., 4 m): 6.4
ASSAY ([1]; 40° C., 4 m, 172800 min): 93%
ASSAY ([1]; t = 0): 95.8%
SMILES: CCOC(=O)[C@@H](N)Cc1ccc(O)c(O)c1 [Example 2c, L-DOPA ethyl ester]
